Measurements as given in patent US20230131630A1, “METHOD OF SCREENING FOR A SUBSTANCE THAT ACTS ON A CELL MASS” (LSI MEDIENCE CORPORATION, priority 2017, published 2023).

Experiments:
[1] = test system: PDX tumor of pancreatic cancer (1); assay: In vivo anticancer drug sensitivity test, PDX tumor grafted subcutaneously in immunodeficient mice; conditions: super SCID mouse, subcutaneous graft; gemcitabine 60 mg/kg/time twice weekly for 4 weeks; FIG. 8 left
Description: An in vivo anticancer drug sensitivity test was performed by the following procedures with reference to a known method. A PDX tumor of pancreatic cancer (1), which was subcutaneously grown in an immunodeficient mouse [super SCID mouse (strain name: C3H/HeJ/NOs-scid; LPS-nonresponder)], was aseptically extracted in a safety cabinet, and every necrotic area of the tumor was removed with surgical scissors. Subsequently, graft tumor fragments each having a size of about 2 to 3 mm square were prepared and subcutaneously grafted in at least 12 immunodeficient mice. When the average tumor volume reached about 200 mm^3, the mice were grouped by tumor volume and assigned to a control group and a gemcitabine administration group (N = 6: 6 mice each under the same conditions). Gemcitabine (60 mg/kg/time) was administered at a dosing frequency of twice weekly for 4 weeks. The tumor diameter was measured at a frequency of twice weekly and the tumor volume was calculated, thereby creating a tumor proliferation curve.

[2] = test system: cell mass of primary cancer cells from PDX tumor of pancreatic cancer (1); assay: In vitro anticancer drug sensitivity test, ATP assay (CellTiter-Glo 3D) on three-dimensionally cultured cell mass; assay type: cell-based, human; conditions: fresh tumor; gemcitabine 0.001-10 µmol/L from Day 7, ATP assay on Day 14; FIG. 8 right
Description: A half of medium exchange was performed with a culture medium supplemented with gemcitabine on Day 7. A half of medium exchange was performed with a culture medium supplemented with gemcitabine which was adjusted to maintain the final concentration on Days 10 and 12. On Day 14, ATP assay was performed, and the proportion based on the result of each gemcitabine concentration group was calculated when the result at a gemcitabine concentration of 0 µmol / L was defined as a cell viability of 100%, thereby creating a cell viability curve. An in vitro anticancer drug sensitivity test was performed by the following procedures. After dispersion treatment, the necessary amount of cells counted were collected in a 15-mL tube, and the supernatant was removed by centrifugation at 300 × g for 5 min. Thereafter, a cell suspension was prepared so that the cell count was 5 × 10^4 cells/mL using a medium prepared by adding Corning Matrigel GFR (Corning Incorporated) to StemPro hESC SFM (Thermo Fisher Scientific K.K.) to yield a final concentration of 2% v/v. […] The seeded cell count was 1 × 10^4 cells/200 µL/well, and the day of seeding was determined to be Day 0. […] The proportion of the result of each gemcitabine concentration group was calculated when the result at a gemcitabine concentration of 0 µmol / L was defined as a cell viability of 100%, thereby creating a cell viability curve.

[3] = test system: cell mass originating from the once-frozen PDX tumor of pancreatic cancer (1); assay: In vitro gemcitabine sensitivity test, ATP assay on cell mass from once-frozen tumor tissue; assay type: cell-based, human; conditions: gemcitabine 0.001-10 µmol/L from Day 3, ATP assay on Day 7, FIG. 9
Description: The PDX tumor of pancreatic cancer (1) (procured from National Institutes of Biomedical Innovation, Health and Nutrition) was extracted in accordance with Example 1. The tumor was immersed in CELLBANKER 1 (Takara Bio Inc.) and frozen by a Program Deep Freezer (Nepa Gene Co., Ltd.), thereby preparing a frozen tumor. The frozen tumor was thawed in a warm bath at 37° C. and washed with HBSS (Thermo Fisher Scientific K.K.), and then, primary cancer cells were prepared in accordance with Example 1. After dispersion treatment, the necessary amount of cells counted were collected in a 15-mL tube, and the supernatant was removed by centrifugation at 300 × g for 5 min. […] The seeded cell count was 1 × 10^4 cells/200 µL/well, and the day of seeding was determined to be Day 0. […] The proportion of the result of each measurement day with respect to the result of Day 0 was calculated, and a proliferation curve was created. The proportion based on the result of each gemcitabine concentration group was calculated when the result at a gemcitabine concentration of 0 µmol / L was defined as a cell viability of 100%, thereby creating a cell viability curve.

[4] = test system: reproduced cell mass originating from the PDX tumor of pancreatic cancer (1); assay: In vitro gemcitabine sensitivity test, ATP assay on subcultured (reproduced) cell mass; assay type: cell-based, human; conditions: fresh or frozen tumor-derived, gemcitabine 0.001-10 µmol/L from Day 3, ATP assay on Day 7, FIGS. 10-1, 10-2
Description: A fresh tumor-derived cell mass and a frozen tumor-derived cell mass were obtained in accordance with Examples 1 and 10, respectively, using a PDX tumor of pancreatic cancer (1) (procured from National Institutes of Biomedical Innovation, Health and Nutrition). Each cell mass was collected in a 50-mL tube, and the supernatant was removed by centrifugation at 300 × g for 5 min. Thereafter, the cell mass was suspended in TrypLE (Thermo Fisher Scientific K.K.) and enzymatically treated in a warm bath at 37° C. The reaction was weakened by adding 10 times the amount of HBSS (Thermo Fisher Scientific K.K.) to the reaction solution. The undispersed residues were removed by passing the mixture through a 100-µm cell strainer. […]
The necessary amount of cells were collected in a 15-mL tube, and the supernatant was removed by centrifugation at 300 × g for 5 min. […] The seeded cell count was 1 × 10^4 cells/200 µL/well (fresh tumor-derived) or 4 × 10^3 cells/200 µL/well (frozen tumor-derived), and the day of seeding was determined to be Day 0. […] The ratio of the result of each measurement day with respect to the result of Day 0 was calculated, and a growth curve was created. The proportion based on the result of each gemcitabine concentration group was calculated when the result at a gemcitabine concentration of 0 µmol/L was defined as a cell viability of 100%, thereby creating a cell viability curve. […]

Nc1ccn([C@@H]2O[C@H](CO)[C@@H](O)C2(F)F)c(=O)n1 [Gemcitabine, gemcitabine]
inhibited proliferation: proliferation of the PDX tumor (tumor volume, tumor proliferation curve) [1] | proliferation / cell viability (ATP assay) of the cell mass [2] | proliferation / cell viability (ATP assay) of the cell mass [3] | proliferation / cell viability (ATP assay) of the reproduced cell mass [4]
